Reference: patent publication US20250032525A1 (priority 2021, published 2025)
Where two headings read alike, the source gives them in different places.

How the values were obtained:
MES-SA xenografts = test: MES-SA xenograft tumors in mice; type: in vivo, NSG mice; details: MES-SA derived tumors; DOX 2 mg/kg iv. once per week
Protocol: (§1) 2×10^6 cells from each cell line in 200 μl serum-free culture media DMEM were inoculated into NOD.Cg-Prkdc^scid Il2rg^tm1Wjl/SzJ (NSG) mice subcutaneously in the left flank and treatment was initiated when tumors reached 200 mm^3. Mice were treated with saline (n=3 per each cell lines). […] The size of the tumors was measured every second day with a digital caliper.

MES-SA/Dx5 xenografts = test: MES-SA/Dx5 xenograft tumors in mice; type: in vivo, NSG mice; details: multidrug resistant MES-SA/Dx5 tumors; DOX 2 mg/kg iv., LiPyDau 0.5 mg/kg iv. once per week
Protocol: as §1

COLO 205 [1] = details: COLO 205, NCI-60 database, sulforhodamine B; read-out: Cytotoxic IC50; cited from earlier work
HCT-116 = details: HCT-116, NCI-60 database, sulforhodamine B; read-out: Cytotoxic IC50; cited from earlier work
NCI-H226 [2] = details: NCI-H226, NCI-60 database, sulforhodamine B; read-out: Cytotoxic IC50; cited from earlier work
PC-3 [3] = details: PC-3, NCI-60 database, sulforhodamine B; read-out: Cytotoxic IC50; cited from earlier work
DU-145 = details: DU-145, NCI-60 database, sulforhodamine B; read-out: Cytotoxic IC50; cited from earlier work
OVCAR-3 = details: OVCAR-3, NCI-60 database, sulforhodamine B; read-out: Cytotoxic IC50; cited from earlier work
OVCAR-5 [4] = details: OVCAR-5, NCI-60 database, sulforhodamine B; read-out: Cytotoxic IC50; cited from earlier work
OVCAR-8 = details: OVCAR-8, NCI-60 database, sulforhodamine B; read-out: Cytotoxic IC50; cited from earlier work
UO-31 = details: UO-31, NCI-60 database, sulforhodamine B; read-out: Cytotoxic IC50; cited from earlier work
A498 = details: A498, NCI-60 database, sulforhodamine B; read-out: Cytotoxic IC50; cited from earlier work
CAKI-1 [5] = details: CAKI-1, NCI-60 database, sulforhodamine B; read-out: Cytotoxic IC50; cited from earlier work
MCF7 = details: MCF7, NCI-60 database, sulforhodamine B; read-out: Cytotoxic IC50; cited from earlier work
HS 578T = details: NCI-60 database, sulforhodamine B, read-out: Cytotoxic IC50; cited from earlier work
[6] = test system: panel of cell lines of various tissue of origin; test: In vitro cytotoxicity, panel of cell lines (PrestoBlue); type: cell-based, human; details: for IC50: Homo sapiens
Source text: (§2) Experiments were repeated at least 3 times.

Bx-PC-3 = test: In vitro cytotoxicity (PrestoBlue); type: cell-based; details: Homo sapiens, BXPC-3; Bx-PC-3, 72 h; read-out: Cytotoxic IC50
Source text: as §2

CAKI-1 [7] = test: In vitro cytotoxicity (PrestoBlue); type: cell-based; details: Homo sapiens, CAKI-1, 72 h; read-out: Cytotoxic IC50
Source text: as §2

CCRF-CEM = test: In vitro cytotoxicity (PrestoBlue); type: cell-based; details: Homo sapiens, 72 h, read-out: Cytotoxic IC50
Source text: as §2

COLO 205 [8] = test: In vitro cytotoxicity (PrestoBlue); type: cell-based; details: Homo sapiens, COLO 205, 72 h; read-out: Cytotoxic IC50
Source text: as §2

HOP-62 = test: In vitro cytotoxicity (PrestoBlue); type: cell-based; details: Homo sapiens, HOP-62, 72 h; read-out: Cytotoxic IC50
Source text: as §2

MALME-3M = test: In vitro cytotoxicity (PrestoBlue); type: cell-based; details: Homo sapiens, 72 h, read-out: Cytotoxic IC50
Source text: as §2

MDA-MB-435 = test: In vitro cytotoxicity (PrestoBlue); type: cell-based; details: Homo sapiens, MDA-MB-435, 72 h; read-out: Cytotoxic IC50
Source text: as §2

NCI-H226 [9] = test: In vitro cytotoxicity (PrestoBlue); type: cell-based; details: Homo sapiens, NCI-H226, 72 h; read-out: Cytotoxic IC50
Source text: as §2

NCI/ADR-RES = test: In vitro cytotoxicity (PrestoBlue); type: cell-based; details: Homo sapiens, 72 h, read-out: Cytotoxic IC50
Source text: as §2

OVCAR-5 [10] = test: In vitro cytotoxicity (PrestoBlue); type: cell-based; details: Homo sapiens, OVCAR-5, 72 h; read-out: Cytotoxic IC50
Source text: as §2

PC-3 [11] = test: In vitro cytotoxicity (PrestoBlue); type: cell-based; details: Homo sapiens, PC-3, 72 h; read-out: Cytotoxic IC50
Source text: as §2

SK-MEL-28 = test: In vitro cytotoxicity (PrestoBlue); type: cell-based; details: Homo sapiens, SK-MEL-28, 72 h; read-out: Cytotoxic IC50
Source text: as §2

SK-MEL-2 = test: In vitro cytotoxicity (PrestoBlue); type: cell-based; details: Homo sapiens, SK-MEL-2, 72 h; read-out: Cytotoxic IC50
Source text: as §2

Q: What does the source list for `COc1cccc2c1C(=O)c1c(O)c3c(c(O)c1C2=O)C[C@@](O)(C(=O)CO)C[C@@H]3O[C@H]1C[C@H](N)[C@H](O)[C@H](C)O1` [DOX, doxorubicin]?
A: Overall survival (MES-SA xenografts): increased the overall survival; Response / overall survival (MES-SA/Dx5 xenografts): largely ineffective; IC50 (COLO 205 [1]): 158 nM; IC50 (HCT-116): 66.1 nM; IC50 (NCI-H226 [2]): 52.4 nM; IC50 (PC-3 [3]): 246 nM; IC50 (DU-145): 100 nM; IC50 (OVCAR-3): 335 nM; IC50 (OVCAR-5 [4]): 588 nM; IC50 (OVCAR-8): 130 nM; IC50 (UO-31): 553 nM; IC50 (A498): 85.5 nM; IC50 (CAKI-1 [5]): 190 nM; IC50 (MCF7): 15.6 nM; IC50 (HS 578T): 188 nM

Q: With `COc1cccc2c1C(=O)c1c(O)c3c(c(O)c1C2=O)C[C@@](O)(C(C)=O)C[C@@H]3O[C@H]1C[C@H]2[C@H](OC3CCCN32)[C@H](C)O1` (stereo partly shown) [PyDau, 2-deamino-2-pyrrolino-daunorubicin] as the compound, how does the IC50 ([6]; average IC50 within the breast group, read-out: Cytotoxic IC50, av. breast) read?
A: 3.23 nM

Q: And the IC50 ([6]; average IC50 within the colorectal group, read-out: Cytotoxic IC50, av. colorectal)?
A: 3.39 nM

Q: What about the IC50 ([6]; average IC50 within the leukaemia group, read-out: Cytotoxic IC50, av. leukaemia) of the same compound?
A: 0.57 nM

Q: And the IC50 ([6]; average IC50 within the lung group, read-out: Cytotoxic IC50, av. lung)?
A: 4.21 nM

Q: What about the IC50 ([6]; average IC50 within the melanoma group, read-out: Cytotoxic IC50, av. melanoma) of the same compound?
A: 4.08 nM

Q: And the IC50 ([6]; average IC50 within the ovarian group, read-out: Cytotoxic IC50, av. ovarian)?
A: 1.43 nM

Q: And the IC50 ([6]; average IC50 within the pancreatic group, read-out: Cytotoxic IC50, av. pancreatic)?
A: 3.23 nM

Q: And the IC50 ([6]; average IC50 within the prostate group, read-out: Cytotoxic IC50, av. prostatic)?
A: 1.93 nM

Q: What about the IC50 ([6]; average IC50 within the renal group, read-out: Cytotoxic IC50, av. renal) of the same compound?
A: 5.2 nM

Q: And the IC50 ([6]; panel of cell lines, FIG. 1, read-out: IC50 values ranging across every cell line of the panel)?
A: 0.23 to 14.3 nM

Q: And the IC50 ([6]; panel of cell lines, typical range, read-out: IC50 values, typically)?
A: 1 to 10 nM

Q: What about the “Effectiveness against multidrug resistant cells” value ([6]; Pgp expressing multidrug resistant HCT-15 and NCI/ADR-RES cells) of the same compound?
A: effective

Q: What about the IC50 (Bx-PC-3) of the same compound?
A: 4.68 nM

Q: What about the IC50 (CAKI-1 [7]) of the same compound?
A: 1.4 nM

Q: And the IC50 (CCRF-CEM)?
A: 0.23 nM

Q: What about the IC50 (COLO 205 [8]) of the same compound?
A: 2.38 nM

Q: What about the IC50 (HOP-62) of the same compound?
A: 4.16 nM

Q: What about the IC50 (MALME-3M) of the same compound?
A: 1.84 nM

Q: What about the IC50 (MDA-MB-435) of the same compound?
A: 1.86 nM

Q: And the IC50 (NCI-H226 [9])?
A: 4.44 nM

Q: And the IC50 (NCI/ADR-RES)?
A: 1.38 nM

Q: What about the IC50 (OVCAR-5 [10]) of the same compound?
A: 1.93 nM

Q: And the IC50 (PC-3 [11])?
A: 2.54 nM

Q: What about the IC50 (SK-MEL-28) of the same compound?
A: 6.87 nM

Q: And the IC50 (SK-MEL-2)?
A: 3.55 nM
